# In patent US20050267038A1, “Novel diphenylazetidinones, process for their preparation, medicaments comprising these compounds and their use” (Aventis Pharma Deutschland GmbH, priority 2000, published 2005):
# Test system: cholesterol absorption
# Assay: Cholesterol absorption test: uptake of 14C-cholesterol by the liver
# Assay type: in vivo, mouse
# Details: dose at which the uptake of 14C-cholesterol by the liver is halved (50%), based on a control group; test substance given immediately prior to peroral test meal; liver after 24 h
# Text: Effect on Cholesterol Absorption +^3H-Taurocholic Acid Excretion Using Fecal Excrement of Mice, Rats or Hamsters
# NMRI mice, Wistar rats, or Golden Syrian hamsters (in groups of n=4-6) are kept in metabolic cages, where they are fed with a standard diet (Altromin, Lage (Lippe)). The afternoon prior to the administration of the radioactive tracers (^14C-cholesterol), the feed is removed and the animals are adapted to grates.
# Additionally, the animals are labeled s.c. with ^3H-TCA (taurocholic acid) (for example 1 μCi/mouse up to 5 μCi/rat) 24 hours prior to the peroral administration of the test meal (^14C-cholesterol in Intralipid® 20, Pharmacia-Upjohn).
# Cholesterol absorption test: 0.25 ml/mouse Intralipid® (Pharmacia-Upjohn) ((spiked with 0.25 μCi of ^14C-cholesterol in 0.1 mg of cholesterol) is administered perorally by gavage.
# Test substances are prepared separately in 0.5% methylcellulose (Sigma)/5% Solutol (BASF, Ludwigshafen) or a suitable vehicle.
# The administration volume of the test substance is 0.5 ml/mouse. The test substance is administered immediately prior to the test meal (Intralipid labeled with ^14C-cholesterol) (cholesterol absorption test).
# The feces are collected over a period of 24 h: fecal elimination of ^14C-cholesterol and ^3H-taurocholic acid (TCA) is determined after 24 hours.
# The livers are removed and homogenized, and aliquots are incinerated in an oximate (Model 307, Packard) to determine the amount of ^14C-cholesterol which had been taken up/absorbed.
# The amount of ^14C-cholesterol taken up by the liver is based on the administered dose. The ED50 values are interpolated from a dose-effect curve as the dose at which the uptake of ^14C-cholesterol by the liver is halved (50%), based on a control group.
row,SMILES,ED50 (liver) [mg/mouse]
1,O=C(NCc1ccc(C2C(CCC(O)c3ccc(F)cc3)C(=O)N2c2ccc(F)cc2)cc1)C(O)C(O)C(O)C(O)CO (stereo not drawn) [Example II],0.1
2,"C[N+](C)(C)CCCC(=O)NCc1ccc(C2C(CCC(O)c3ccc(F)cc3)C(=O)N2c2ccc(F)cc2)cc1.O=C([O-])C(F)(F)F (stereo not drawn) [Example XV, [3-(4-{1-(4-Fluorophenyl)-3-[3-(4-fluorophenyl)-3-hydroxypropyl]-4-oxoazetidin-2-yl}benzylcarbamoyl)propyl]trimethylammonium trifluoroacetate]",0.01
3,"COc1ccc(C2C(CCC(O)c3ccc(F)cc3)C(=O)N2c2ccc(CNC(=O)CCCCN(Cc3ccccc3)CC(O)C(O)C(O)C(O)CO)cc2)cc1.O=C(O)C(F)(F)F (stereo not drawn) [Example XVIII, Benzyl-(4-{4-[3-[3-(4-fluorophenyl)-3-hydroxypropyl]-2-(4-methoxyphenyl)-4-oxoazetidin-1-yl]benzylcarbamoyl}butyl)-(2,3,4,5,6-pentahydroxyhexyl)ammonium trifluoroacetate]",1.0
4,"COc1ccc(C2C(CCC(O)c3ccc(F)cc3)C(=O)N2c2ccc(CNC(C)=O)cc2)cc1 (stereo not drawn) [Example XX, N-{4-[3-[3-(4-Fluorophenyl)-3-hydroxypropyl]-2-(4-methoxyphenyl)-4-oxoazetidin-1-yl]benzyl}acetamide]",0.03
5,C[N+](C)(C)CCCCC(NC(=O)OCC1c2ccccc2-c2ccccc21)C(=O)NCc1ccc(C2C(CCC(O)c3ccc(F)cc3)C(=O)N2c2ccc(F)cc2)cc1.[Cl-] (stereo not drawn) [Example XXI],1.0
6,"CN(CCOCCOCCOc1ccc(C2C(CCC(O)c3ccc(F)cc3)C(=O)N2c2ccc(F)cc2)cc1)CC(O)C(O)C(O)C(O)CO (stereo not drawn) [Example XXX, 1-(4-Fluorophenyl)-3-[3-(4-fluorophenyl)-3-hydroxypropyl]-4-{4-[2-(2-{2-[methyl-(2,3,4,5,6-pentahydroxyhexyl)amino]ethoxy}ethoxy)ethoxy]phenyl}azetidin-2-one]",0.1
7,"COc1ccc(C2C(CCC(O)c3ccc(F)cc3)C(=O)N2c2ccc(CNC(=O)CCCCCCCCCCCNC(=O)C(O)C(O)C(O)C(O)CO)cc2)cc1 (stereo not drawn) [III, N-4-[3-[3-(4-Fluorophenyl)-3-hydroxypropyl]-2-(4-methoxyphenyl)-4-oxoazetidin-1-yl]benzyl-12-(2,3,4,5,6-pentahydroxyhexanoylamino)dodecanamide]",0.003
8,"O=C(COCCOCC(=O)NCc1ccc(C2C(CCC(O)c3ccc(F)cc3)C(=O)N2c2ccc(F)cc2)cc1)NCCOCCOCC(=O)C(O)C(O)C(O)C(O)CO (stereo not drawn) [XIII, N-(4-{1-(4-Fluorophenyl)-3-[3-(4-fluorophenyl)-3-hydroxypropyl]-4-oxoazetidin-2-yl}-benzyl)-2-[2-({2-[2-(3,4,5,6,7-pentahydroxy-2-oxoheptyloxy)ethoxy]-ethylcarbamoyl}-methoxy)ethoxy]acetamide]",0.3
9,"C[N+](C)(C)CCCCCOc1ccc(C2C(CCC(O)c3ccc(F)cc3)C(=O)N2c2ccc(F)cc2)cc1.[Br-] (stereo not drawn) [XXIV, [5-(4-{1-(4-Fluorophenyl)-3-[3-(4-fluorophenyl)-3-hydroxypropyl]-4-oxoazetidin-2-yl}phenoxy)pentyl]trimethylammonium bromide]",0.3
10,"CN(CCCCOc1ccc(C2C(CCC(O)c3ccc(F)cc3)C(=O)N2c2ccc(F)cc2)cc1)CC(O)C(O)C(O)C(O)CO (stereo not drawn) [XXV, 1-(4-Fluorophenyl)-3-[3-(4-fluorophenyl)-3-hydroxypropyl]-4-(4-{4-[methyl-(2,3,4,5,6-pentahydroxyhexyl)amino]butoxy}phenyl)azetidin-2-one]",0.3

# Test system: Caco-2 cell monolayers
# Assay: Bioabsorption, Caco cell model
# Assay type: in vitro ADME
# Details: estimated from Caco cell model
# Text: (§1) The bioabsorption of the compounds of the formula I can be examined using the Caco cell model (A. R. Hilgers et al., Caco-2 cell monolayers as a model for drug transport across the intestinal mucosa, Pharm. Res. 1990, 7, 902).
# (§2) Below is a bioabsorption measurement for a reference compound: […]
row,SMILES,Estimated human bioabsorption [%]
1,O=C1[C@H](CC[C@H](O)c2ccc(F)cc2)[C@@H](c2ccc(O)cc2)N1c1ccc(F)cc1 [Ezetimibe],100

# Test system: not listed separately
# Assay: Bioabsorption, Caco cell model
# Assay type: in vitro ADME
# Details: human, Caco-2; Caco cell model; read-out: Apparent partition coefficient Papp (according to Lit. Hilgers)
# Text: as §1, §2
row,SMILES,Papp [×10⁻⁶ cm/s]
1,O=C1[C@H](CC[C@H](O)c2ccc(F)cc2)[C@@H](c2ccc(O)cc2)N1c1ccc(F)cc1 [Ezetimibe],4.88
